Experimental data reported in patent US12502374B2, “Composition for preventing, alleviating, or treating inflammatory disease containing isookanin or salt thereof as active ingredient” (BioSpectrum, Inc., priority 2020, dated 2025).

Experiments:
[1] = test system: HMEC-1; experiment: PGE2-induced vascular endothelial cell tube formation on Matrigel; format: cell-based, human; conditions: 20 μM, 24 hours; compared with 100 ng/ml VEGF
Experimental: Human vascular endothelial cells (HMEC-1) were seeded in a Matrigel-coated 24-well plate at a density of 1.2×10^5 cells per well, and each well was pretreated with 10 ppm of isookanin for 2 hours. Next, each well was treated with PGE2 at a concentration of 20 μM and incubated for 24 hours. As a negative control, 100 ng/ml of VEGF was used. After 24 hours of incubation, the degree of vascular cell tube formation was observed using a microscope, and the results were photographed with a microscope camera and analyzed with Image J, and are shown in FIGS. 10 and 11.

[2] = test system: HMEC-1; experiment: PGE2-induced vascular endothelial cell migration (scratch assay); format: cell-based, human; conditions: 20 μM, 24 hours; compared with 100 ng/ml VEGF
Experimental: Human vascular endothelial cells (HMEC-1) were seeded in a 12-well plate at a density of 2×10^5 cells per well and cultured in an incubator for 24 hours at 37° C. under 5% CO2. After the cells in each well were grown to 80% confluency, the central part of each well was scratched using a yellow pipette tip. Next, each well was pretreated with each concentration of isookanin for 2 hours and then treated with 20 μM PGE2 and incubated for 24 hours. As a negative control, 100 ng/ml of VEGF was used. After 24 hours of incubation, the degree of vascular cell migration was observed using a microscope, and the results were photographed with a microscope camera and shown in FIG. 9.

[3] = test system: human skin; experiment: Human skin safety, repeated insult patch test (Finn chamber); format: in vivo; conditions: 30 healthy adults
Experimental: In order to confirm that the isookanin according to the present invention is safe for human skin, a skin safety verification test was performed. To this end, a repeated insult patch test was conducted.
Nourishing creams containing the isookanin in amounts of 0.1%, 0.5% and 1%, respectively, were prepared. Specifically, a water phase containing purified water, triethanolamine and propylene glycol was dissolved by heating to 70° C. and then emulsified by adding a solution obtained by dissolving beeswax, liquid paraffin, an oil component, an emulsifier and a preservative by heating to 70° C. After completion of emulsification, the solution was cooled to 45° C., and the isookanin was added thereto in amounts of 0.1%, 0.5% and 1% and dispersed therein, followed by cooling to 30° C. As the content of the isookanin was increased from 0.1% to 0.5% and 1%, the content of liquid paraffin was decreased from 9.91% to 9.51% and 9.01%, respectively, thereby preparing nourishing creams.
Using the nourishing creams prepared as described above, a repeated insult patch test was conducted on the upper arm areas of 30 healthy adults every other day for a total of 9 times for 24 hours per time to determine whether the isookanin irritated the skin.
The patch test was performed using a Finn chamber (Epitest Ltd., Finland). 15 μl of each of the external skin preparations was dropped into the chamber, and then the patch test was performed.
[Equation 1] Average degree of reaction=[[(reaction index×degree of reaction)/(total number of subjects×highest score (4)]×100]÷number of tests (9)
In the degree of reaction, ± represents a score of 1, + represents a score of 2, and ++ represents a score of 4. When the average degree of reaction is less than 3, the corresponding composition is determined to be safe.

[4] = test system: human skin; experiment: as above; format: in vivo; conditions: 30 healthy adults; 10th patch test; dash = no subject

| Compound | effect on vascular cell tube formation [1] | effect on vascular endothelial cell migration [2] | Average degree of reaction ([3]; upper arm, 24 hours per patch, Equation 1, less than 3 is determined to be safe) | Number of subjects showing reaction (±, +, ++), 1st ([3]; 1st patch test, dash = no subject) | Number of subjects showing reaction (±, +, ++), 2nd ([3]; 2nd patch test, dash = no subject) | Number of subjects showing reaction (±, +, ++), 5th ([3]; 5th patch test, dash = no subject) | Number of subjects showing reaction (±, +, ++), 6th ([3]; 6th patch test, dash = no subject) | Number of subjects showing reaction (±, +, ++), 7th ([3]; 7th patch test, dash = no subject) | Number of subjects showing reaction (±, +, ++), 8th ([3]; 8th patch test, dash = no subject) | Number of subjects showing reaction (±, +, ++), column between 3rd and 5th ([3]; dash = no subject) | Number of subjects showing reaction (±, +, ++), 10th [4] |
| --- | --- | --- | --- | --- | --- | --- | --- | --- | --- | --- | --- |
| CCCCC[C@H](O)/C=C/[C@H]1[C@H](O)CC(=O)[C@@H]1C/C=C\CCCC(=O)O [PGE2, reference compound] | promoted vascular cell tube formation, similar to VEGF | promoted vascular endothelial cell migration, similar to VEGF |  |  |  |  |  |  |  |  |  |
| CC(C)=CCC/C(C)=C/CC/C(C)=C/CC/C=C(\C)CC/C=C(\C)CCC=C(C)C [squalene] |  |  | 0.09 | - - - | - - - | - - - | - - | - - - | - - - | - - - | - - - |
